This is an account of results in patent publication US8975280B2, “Deoxynojirimycin and D-arabinitol analogs and methods of using” (The Chancellor, Masters and Scholars of The University of …, priority 2006, dated 2015).

Where two headings read alike, the source gives them in different places.

The term IC50 denotes the concentration at which inhibition is half-maximal.

The target in one experiment is T1, α-glucosidase I (Rattus norvegicus, UniProt O88941).
T1 construct: Purified α-glucosidase I and II were purified from rat liver by known methods; from tissue; host or cells: rat liver
T1 sequence (O88941 1-834): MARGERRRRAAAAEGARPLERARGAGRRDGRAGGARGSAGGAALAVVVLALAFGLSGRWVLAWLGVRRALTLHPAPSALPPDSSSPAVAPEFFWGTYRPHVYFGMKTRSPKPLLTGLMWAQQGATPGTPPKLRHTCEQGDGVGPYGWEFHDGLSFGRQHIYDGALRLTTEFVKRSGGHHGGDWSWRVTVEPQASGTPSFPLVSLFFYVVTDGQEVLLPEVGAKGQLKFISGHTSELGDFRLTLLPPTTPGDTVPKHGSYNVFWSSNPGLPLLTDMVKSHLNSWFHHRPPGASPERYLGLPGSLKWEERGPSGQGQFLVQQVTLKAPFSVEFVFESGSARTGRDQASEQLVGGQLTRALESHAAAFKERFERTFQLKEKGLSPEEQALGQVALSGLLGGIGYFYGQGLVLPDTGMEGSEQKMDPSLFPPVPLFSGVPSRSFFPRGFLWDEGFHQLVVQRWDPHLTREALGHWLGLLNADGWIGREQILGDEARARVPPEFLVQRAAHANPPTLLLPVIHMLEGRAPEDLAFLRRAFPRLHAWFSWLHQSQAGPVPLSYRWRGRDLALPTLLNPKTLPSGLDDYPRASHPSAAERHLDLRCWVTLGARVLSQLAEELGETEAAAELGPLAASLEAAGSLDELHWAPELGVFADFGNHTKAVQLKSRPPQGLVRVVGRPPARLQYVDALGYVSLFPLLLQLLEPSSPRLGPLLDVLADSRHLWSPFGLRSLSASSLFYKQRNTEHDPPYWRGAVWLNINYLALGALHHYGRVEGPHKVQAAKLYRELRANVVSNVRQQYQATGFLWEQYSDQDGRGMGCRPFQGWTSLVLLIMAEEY
Nature of the experiment: In vitro inhibition of purified α-glucosidase I, 2-AA-labeled FOS substrates, HPLC. The experiment is classed as biochemical. As for the experimental part:
(§1) All chromatography was performed at 30° C. The first solvent, solvent A, was acetonitrile and the second solvent, solvent B, was Milli-Q water. […] Samples (<50 μl) were injected in Milli-Q water/acetonitrile (3/7, v/v). All chromatography was controlled, including data collection and processing, using Waters Empower software. Glucose units were determined, following comparison with a 2-AA-labeled glucose oligomer ladder (derived from a partial hydrolysate of dextran) external standard using Peak Time software (developed in-house).
Purified α-glucosidase I and II were purified from rat liver by known methods. […] 2-AA-labeled FOS were isolated and purified as substrates for either α-glucosidase I or II. Fluorescently-labeled substrates Glc1Man5GlcNAc1 (G1M5N), Glc2Man5GlcNAc1 (G2M5N), Glc3Man5GlcNAc1 (G3M5N) and Glc3Man9GlcNAc, (G3M9N2) were added to separate 1.5 ml centrifuge tubes with varying concentrations of imino sugar and dried under vacuum. […] Similarly, α-glucosidase II was incubated for 2 hours with G2M5N and 20 minutes with G1M5N. […] The reactions were stopped by the addition of 30 μl acetonitrile.

For a further experiment, the target named is T2, α-glucosidase II (Rattus norvegicus, UniProt A0A8I6GFL3).
T2 construct: Purified α-glucosidase I and II were purified from rat liver by known methods; from tissue; host or cells: rat liver
T2 sequence (A0A8I6ADW9 1-525 partner): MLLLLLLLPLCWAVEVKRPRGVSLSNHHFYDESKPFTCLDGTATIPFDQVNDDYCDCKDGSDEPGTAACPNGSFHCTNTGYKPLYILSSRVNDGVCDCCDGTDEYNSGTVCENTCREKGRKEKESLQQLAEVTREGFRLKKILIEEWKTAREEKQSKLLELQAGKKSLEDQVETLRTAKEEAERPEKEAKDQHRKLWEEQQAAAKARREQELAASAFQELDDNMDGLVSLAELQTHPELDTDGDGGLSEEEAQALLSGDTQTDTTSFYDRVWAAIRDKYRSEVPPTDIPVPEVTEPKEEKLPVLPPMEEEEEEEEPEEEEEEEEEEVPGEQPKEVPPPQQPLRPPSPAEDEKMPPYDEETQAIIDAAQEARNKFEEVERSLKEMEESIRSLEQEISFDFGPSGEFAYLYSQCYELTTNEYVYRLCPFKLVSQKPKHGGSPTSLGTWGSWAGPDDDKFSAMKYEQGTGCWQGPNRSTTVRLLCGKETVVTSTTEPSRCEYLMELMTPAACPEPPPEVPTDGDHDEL
Nature of the experiment: In vitro inhibition of purified α-glucosidase II, (a) and (b) activities, 2-AA-labeled FOS substrates, HPLC. It counts as biochemical. As for the experimental part: as §1
Purified α-glucosidase I and II were purified from rat liver by known methods. […] 2-AA-labeled FOS were isolated and purified as substrates for either α-glucosidase I or II. […] […] […] […] The reactions were stopped by the addition of 30 μl acetonitrile.

[1] abbreviates: nonamannose substrate Glc3Man9GlcNAc1, read-out: α-Glucosidase I Glc3Man9GlcNAc1 IC50.
The mark [2] stands for this setting: pentamannose substrate Glc3Man5GlcNAc1, read-out: α-Glucosidase I Glc3Man5GlcNAc1 IC50.
Where [3] appears, read: pentamannose substrate Glc1Man5GlcNAc1, read-out: α-Glucosidase II (b) Glc1Man5GlcNAc1 IC50.
Setting [4] is: pentamannose substrate Glc2Man5GlcNAc1, read-out: α-Glucosidase II (a) Glc2Man5GlcNAc1 IC50.

Turning to `CCCCN1C[C@H](O)[C@@H](O)[C@H](O)[C@H]1CO` [NB-DNJ, N-butyl-DNJ, reference compound], the IC50 at α-glucosidase I (setting [1]) was 590 ± 80 nM; on α-glucosidase I (setting [2]) it was 680 ± 150 nM; at α-glucosidase II (setting [3]), 53000 ± 16600 nM; on α-glucosidase II (setting [4]), 10800 ± 1100 nM.

On to `O=[N+]([O-])c1ccc(NCCCCCCN2C[C@H](O)[C@@H](O)[C@H](O)[C@H]2CO)c([N+](=O)[O-])c1` [NDP-DNJ, N—(N′-{2,4-dinitrophenyl)-6-aminohexyl)-deoxynojirimycin], for which the IC50 at α-glucosidase I (heptamannose substrate Glc3Man7GlcNAc1, read-out: α-Glucosidase I Glc3Man7GlcNAc1 IC50) stood at 45 ± 3 nM; on α-glucosidase I (setting [1]), 54 ± 20 nM; at α-glucosidase I (setting [2]), 108 ± 20 nM; at α-glucosidase II (heptamannose substrate Glc1Man7GlcNAc1, read-out: α-Glucosidase II (b) Glc1Man7GlcNAc1 IC50), 10200 ± 20 nM; at α-glucosidase II (heptamannose substrate Glc2Man7GlcNAc1, read-out: α-Glucosidase II (a) Glc2Man7GlcNAc1 IC50), 18100 ± 1600 nM; at α-glucosidase II (setting [3]), 1900 ± 400 nM. Also, the IC50 on α-glucosidase II (setting [4]) came out at 6900 ± 3400 nM.
